One experiment addresses T1, ERBB4/ERBB4 (Homo sapiens, UniProt Q15303).
T1 construct: host or cells: U2OS (osteosarcoma cells), PathHunter engineered line
The experiment in a line: PathHunter U2OS ERBB4/ERBB4 dimerization assay, 96-well dose-response. It counts as cell-based. The conditions noted are these: for ERBB4/ERBB4 dimerization signal: relative to signal with 0.1 µM NRG1, single biological replicates. The procedure: PathHunter U2OS ERBB4/ERBB4 (osteosarcoma cells; Eurofins, 93-0961C3), U2OS ERBB2/ERBB4 (osteosarcoma cells; Eurofins, 493-0960C3), ERBB2/ERBB3 (osteosarcoma cells; Eurofins, 93-1042C3) and ERBB1/ERBB1 (osteosarcoma cells; Eurofins, 93-0989C3) dimerization cell lines were cultured according to the manufacturer’s instructions. Briefly, cells were cultured in Cell Culture Reagent 103 (Eurofins, 92-3103 G) supplemented with 250 µg/mL Hygromycin B (Eurofins, 92-0029) and 500 µg/mL G418 (Eurofins, 92-0030), and were maintained at 37 °C in humidified atmosphere of 5% CO2. HCFs (Innoprot, P10454) were cultured in fibroblast medium (Innoprot, P60108) supplemented with 10% (v/v) fetal bovine serum (FBS, Innoprot), 10% (v/v) fibroblast growth supplement (Innoprot), and 1% (v/v) penicillin/streptomycin solution (Innoprot). iAMs[33] (kindly provided by LUMC) were cultured in Advanced DMEM F-12 (Thermo Fisher Scientific, 12634028) supplemented with 2% (v/v) heat-inactivated FBS (Thermo Fisher Scientific, 10270106), 1% (v/v) penicillin/streptomycin (10,000 units/mL and 10 mg/mL respectively, Thermo Fisher Scientific, 15140122), 1× GlutaMAX (Thermo Fisher Scientific, 35050061), and 100 ng/mL doxycycline (Tocris, 4090) for proliferation. To induce differentiation, iAMs were transferred to medium without doxycycline.
U2OS ERBB4/ERBB4 dimerization cells were seeded at a density of 5 × 10^4 cells/well in 100 µL Cell Plating 0 Reagent, in white 96-well plates (PerkinElmer, 6005680) and incubated for 24 h at 37 °C, 5% CO2. […] Next, 110 µL PathHunter Flash Detection Reagent was added to each well and incubated at RT for 1 h after which the luminescence signal was measured using the Luminoskan Ascent (Thermo Fisher Scientific). […] The same experimental set-up was used for the U2OS ERBB2/ERBB4, U2OS ERBB2/ERBB3 and U2OS ERBB1/ERBB1 dimerization cell lines.
Category Parameter Description
Assay Type of assay PathHunter Dimerization assays provide a robust, highly sensitive and easy-to-use cell-based functional assay to study various protein activities in a cell. The assay s use
Enzyme Fragment Complementation technology, where the b-galactosidase (b-gal) enzyme is split into two fragments, ProLink and Enzyme Acceptor. Independently these fragments have no b-gal activity. However, when forced to complement through protein-protein interactions, they form an active b-gal enzyme. The PathHunter Dimerization assay detects ligand induced dimerization of two subunits of a receptor-dimer pair. The cells have been engineered to co-express one receptor subunit (ERBB4) fused to Enzyme
Donor, and a second dimer partner (ERBB4) fused to Enzyme Acceptor. Binding of an agonist to one receptor subunit induces it to interact with its dimer partner, forcing complementation of the two enzyme […]
functional enzyme that hydrolyzes a substrate to generate a chemiluminescent signal.
Target ErbB4 receptor (RTK receptor)
Primary measurement Detection of chemiluminescent signal, induced by small-molecule ErbB4 agonists
Key reagents PathHunter Dimerization ErbB4/ErbB4 Cell
Line (93-0961C3) - PathHunter Flash
Detection Kit (03 -0247) - AssayComplete Cell
AssayComplete Cell Detachment Reagent
(92-0009) - AssayComplete Thawing Reagent
T3 (92-4103TR) - AssayComplete Freezing
Assay protocol https://www.discoverx.com/catalog/pathhun

The subject of experiment [1] is Akt phosphorylation (pAkt/Akt). As to the kind of experiment: Western blot pAkt/Akt in iAMs. It counts as cell-based, rat. As to conditions: for pAkt/Akt, relative to vehicle of the same time point: iAMs, single replicates; for phosphorylation of Akt in iAMs (in words): NRG1 10 nM or EF-1 32 µM. The protocol:
Hearts of the aforementioned transgenic mice were removed immediately after the animals had been killed. Cells and heart tissue were collected in RIPA lysis buffer (Thermo Fisher Scientific, 89900) supplemented with protease inhibitors (Merck, 11836153001) and phosphatase inhibitors (Merck, 4906845001) and the lysates were centrifuged at 14,000 × g for 10 min. The supernatants were collected, supplemented with sample buffer, and incubated at 95 °C for 5 min. Protein quantification was done with Pierce^TM BCA Protein Assay Kits (Thermo Fisher, 23227) according to the manufacturer’s instructions. Equal protein amounts of clarified lysates (20 µg) were subsequently separated by sodium dodecyl sulfate (SDS) polyacrylamide gel electrophoresis (165 V, 400 mA, 60 min) and transferred onto polyvinylidene fluoride membranes by electroblotting (100 V, 400 mA, 90 min). Next, the membranes were incubated for 1 h with Li-Cor blocking buffer (Li-Cor, 927-60001) at RT in Tris-buffered saline (TBS), supplemented with 0.1% Tween (BIO-RAD, 1706531). Next, primary antibodies were added (see below and Table 1a) in Li-Cor blocking buffer supplemented with 0.1% Tween, and the membranes were incubated overnight at 4 °C on a shaker. Following washing with TBS-0.1% Tween, the membranes were incubated for 1 h at RT with corresponding IRDye-conjugated secondary antibodies (See below and Table 1b) in Li-Cor blocking buffer supplemented with […] and 0.1% Tween. The membrane was visualized with the Odessey imaging system.
On the technique in general: Immunoblotting shows a protein as a band on a membrane.

“And” between values parts separate entries of the source, which are not always exact repeats. Equal values may be shown once.

T1 sequence (Q15303 26-1308): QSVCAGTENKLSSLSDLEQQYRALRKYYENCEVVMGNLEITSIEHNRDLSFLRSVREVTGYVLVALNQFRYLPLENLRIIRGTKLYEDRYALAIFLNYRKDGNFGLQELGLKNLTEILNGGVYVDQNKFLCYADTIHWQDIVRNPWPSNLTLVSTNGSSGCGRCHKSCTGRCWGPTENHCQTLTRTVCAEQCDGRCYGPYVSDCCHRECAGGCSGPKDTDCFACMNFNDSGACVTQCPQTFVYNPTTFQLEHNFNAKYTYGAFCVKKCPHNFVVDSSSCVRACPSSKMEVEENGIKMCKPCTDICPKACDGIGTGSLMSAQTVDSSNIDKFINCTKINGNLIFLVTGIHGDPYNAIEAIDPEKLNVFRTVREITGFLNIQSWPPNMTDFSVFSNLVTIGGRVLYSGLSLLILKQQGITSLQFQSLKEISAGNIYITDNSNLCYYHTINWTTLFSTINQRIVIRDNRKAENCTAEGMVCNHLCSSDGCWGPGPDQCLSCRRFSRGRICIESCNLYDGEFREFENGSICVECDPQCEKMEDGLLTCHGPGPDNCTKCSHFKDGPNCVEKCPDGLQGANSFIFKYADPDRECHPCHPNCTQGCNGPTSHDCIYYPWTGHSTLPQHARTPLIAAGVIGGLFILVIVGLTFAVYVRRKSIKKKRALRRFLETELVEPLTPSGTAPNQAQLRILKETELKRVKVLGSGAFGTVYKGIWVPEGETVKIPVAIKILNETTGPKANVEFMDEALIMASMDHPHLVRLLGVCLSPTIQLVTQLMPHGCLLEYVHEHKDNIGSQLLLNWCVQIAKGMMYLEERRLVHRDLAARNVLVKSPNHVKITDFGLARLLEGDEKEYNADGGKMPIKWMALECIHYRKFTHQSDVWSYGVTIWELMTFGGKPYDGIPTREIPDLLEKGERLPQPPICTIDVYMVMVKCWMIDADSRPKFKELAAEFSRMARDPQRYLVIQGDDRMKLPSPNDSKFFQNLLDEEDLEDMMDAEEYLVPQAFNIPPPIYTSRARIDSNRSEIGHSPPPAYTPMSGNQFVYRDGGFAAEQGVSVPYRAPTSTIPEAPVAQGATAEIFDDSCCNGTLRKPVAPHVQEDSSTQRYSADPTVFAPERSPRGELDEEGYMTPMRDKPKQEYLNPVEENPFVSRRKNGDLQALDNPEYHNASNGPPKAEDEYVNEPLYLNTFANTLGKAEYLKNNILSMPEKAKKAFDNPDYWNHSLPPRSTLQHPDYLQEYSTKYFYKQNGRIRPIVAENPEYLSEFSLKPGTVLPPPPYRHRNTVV
T1 sequence (Q15303 26-1308): as above

As for `O=C(NC1CC1)C(Sc1nc2ccccc2c(=O)n1C1CCCC1)c1ccccc1` (centres unmarked) [EF-1], the ERBB4/ERBB4 dimerization signal on ERBB4/ERBB4 (3.125e-8 M) was 0; on ERBB4/ERBB4 (6.25e-8 M), -1.6 and -0.07 and 2.169 and 1.573; at ERBB4/ERBB4 (1.25e-7 M), -0.55 and -0.15 and 2.599 and 0.9551; at ERBB4/ERBB4 (2.5e-7 M), -1.94 and 0.74 and 2.315 and -0.7582; at ERBB4/ERBB4 (5e-7 M), -0.55 and 0.26 and 2.323 and -0.4275; on ERBB4/ERBB4 (1e-6 M) it was -2 and 0.47 and 4.362 and -0.05827. The ERBB4/ERBB4 dimerization signal at ERBB4/ERBB4 (2e-6 M) is 1.2 and 2.97 and 7.682 and 3.162; at ERBB4/ERBB4 (4e-6 M) it was 7.41 and 5.76 and 13.8923 and 7.932; at ERBB4/ERBB4 (8e-6 M), 16.72 and 8.19 and 23.4633 and 9.465; at ERBB4/ERBB4 (1.6e-5 M), 24.8 and 17.62 and 27.6207 and 19.8392; on ERBB4/ERBB4 (3.2e-5 M), 30.57 and 22.84 and 33.2287 and 25.0905. Besides, on ERBB4/ERBB4 (% of the effect of NRG1), the “Emax, maximum response relative to NRG1” value was determined as 27.9 ± 4.8%. For the same compound, in experiment [1] (EF-1), the “time of peak Akt phosphorylation” value amounted to 2 h. Further, the “pAkt/Akt, relative to vehicle of the same time point” value in experiment [1] (EF-1 32 µM, 0 minutes) was 0.748 and 0.7404 and 0.672 and 0.9718; in experiment [1] (EF-1 32 µM, 15 minutes), 0.8783 and 0.9705 and 0.9844 and 0.887; in experiment [1] (EF-1 32 µM, 60 minutes) it was 1.284 and 1.335 and 1.4576 and 1.506; in experiment [1] (EF-1 32 µM, 120 minutes), 2.136 and 1.473 and 2.15 and 1.815; in experiment [1] (EF-1 32 µM, 240 minutes), 2.021 and 1.657 and 2.184 and 2.136. The “phosphorylation of Akt in iAMs (in words)” value in experiment [1] is recorded as “time-dependent phosphorylation of Akt”.

Regarding `Cc1sc2nc(SC(C)C(=O)NCc3ccc4c(c3)OCO4)n(-c3ccccc3)c(=O)c2c1C` (centres unmarked) [NA-1], the “induction of ERBB4 dimerization (in words)” value at ERBB4/ERBB4 is “did not activate ERBB4”. Also, the ERBB4/ERBB4 dimerization signal is 0 on ERBB4/ERBB4 (3.125e-8 M); -1.9 and -5.83 at ERBB4/ERBB4 (1.25e-7 M); -1.92 and -5.07 on ERBB4/ERBB4 (5e-7 M); -1.85 and -3.89 at ERBB4/ERBB4 (2e-6 M); -1.52 and -5.16 on ERBB4/ERBB4 (8e-6 M); -1.83 and -4.37 on ERBB4/ERBB4 (3.2e-5 M).

For neuregulin-1 [NRG1], in experiment [1], the “phosphorylation of Akt in iAMs (in words)” value is “significant increase in phosphorylated Akt levels after already 15 minutes”. Also, the “pAkt/Akt, relative to vehicle of the same time point” value in experiment [1] (NRG1 10 nM, 0 minutes) was 1.052 and 0.8332 and 0.8199; in experiment [1] (NRG1 10 nM, 15 minutes), 5.096 and 6.809 and 6.931; in experiment [1] (NRG1 10 nM, 60 minutes), 4.363 and 4.094 and 3.405; in experiment [1] (NRG1 10 nM, 120 minutes) it was 2.7652 and 3.7648 and 2.637; in experiment [1] (NRG1 10 nM, 240 minutes), 2.317 and 2.06.
